Measurements taken from PMC3892053, “Pharmacokinetic/pharmacodynamic modeling for the determination of a cimicoxib dosing regimen in the dog” (BMC Veterinary Research, 2013).
Read-outs that look alike come from different tables or passages of the source.

Tests used:
[1] = Plasma pharmacokinetics after single oral administration in beagle dogs (Study 1); assay type: in vivo, dog; details: mean ± SD; for half-life: beagle, dog, plasma, po, 2 mg/kg, read-out: terminal half-life (converted)
Protocol: The study was conducted according to a classical 2×2 crossover design. Briefly, in period one, half of the dog (3 males and 3 females), received a single oral dose of cimicoxib (approximately 2 mg/kg, one 20 mg capsules – Vetoquinol Lure france) 26.5 h after the induction of kaolin inflammation on the left paw; the other half dogs received a placebo treatment at the same time. In period 2, treatments were crossed over for each dog and inflammation was induced on the right paw. A wash-out delay of at least 5 weeks was applied between the two periods. The treatment (cimicoxib or placebo) was blinded to the investigators.
Blood samples (5 mL, heparinized tubes) were obtained from the jugular vein by direct puncture just before inflammation to perform a biochemical checkup of the animals at the beginning of the experiment. Time 0 was defined as the time of treatment administration. Blood samples (5 mL, heparinized tubes) were collected at time 0 (just before cimicoxib or placebo administration) and then at times 30, 60, 90 min, and, 4, 6, 9, 15, 30 and 48 hours post-treatment. Tubes were centrifuged at 3000 G and plasma samples were stored at -20°C.
Plasma samples were analyzed by a High Performance Liquid Chromatography (HPLC) method using ultraviolet (UV) detection. Briefly, an internal standard (UR-8877) and cimicoxib (UR-8880) were extracted from plasma by a solid liquid (methanol) extraction process using HLB Oasis cartridges (Waters). The extraction yield was about 90%. The HPLC apparatus consists of a pump system equipped with an automatic injector and an UV detector (242 nm). […] The validated limit of quantification was 0.01 μg/mL.
Pharmacokinetic and PK/PD modeling were performed by least-squares regression analysis using WinNonlin Professional software (WinNonlin® software, version 4.0.1, Pharsight Corporation, Mountain View, Ca, USA). […] The number of exponential (2 or 3) terms needed to obtain the best fit for each data set was determined by the Akaike’s information criteria and by inspecting the plot of residuals. […]

[2] = Plasma pharmacokinetics after single intravenous administration in beagle dogs; assay type: in vivo, dog; details: mean ± SD; for HL (plasma half-life): IV 2 mg/kg; for AUC / clearance / half-life / Vd: beagle, dog, plasma, iv, 2 mg/kg; for clearance: read-out: CL (plasma clearance) (converted); for half-life: read-out: HL (plasma half-life) (converted); for Vd: read-out: V (volume of distribution)
Protocol: To verify this hypothesis, a PK investigation of cimicoxib following IV administration (bolus, 2 mg/kg) was performed on the 12 dogs at least 2 months after the completion of the PK/PD study. Blood samples were obtained from the jugular vein by direct puncture at time 0 (control just before the IV administration) and then 2, 15, 30, 60, 90 min. and 2, 3, 4, 6, 9, 12, 24, 30 and 48 hours after the test article administration.
Plasma samples were analyzed by a High Performance Liquid Chromatography (HPLC) method using ultraviolet (UV) detection. Briefly, an internal standard (UR-8877) and cimicoxib (UR-8880) were extracted from plasma by a solid liquid (methanol) extraction process using HLB Oasis cartridges (Waters). The extraction yield was about 90%. The HPLC apparatus consists of a pump system equipped with an automatic injector and an UV detector (242 nm). […] The mobile phase was a mixture of 0.65 L of ultra-pure water and 0.35 L of acetonitrile which was delivered at a flow rate of 1 mL per min. Under these conditions, cimicoxib (UR-8880) and the internal standard (UR-8877) were eluted at retention times of 6 to 7 min and 10 to 11 min, respectively. The method was linear over the calibration range of 0.01 to 5 μg/mL using a linear model weighted by 1/X^2. Within-day and day-to-day coefficients of variation were less than 9% and the accuracy ranged from 94 to 103%, indicating an appropriate precision and accuracy for the analytical method. The lack of interference from endogenous compounds was verified on blank plasma from untreated dogs, establishing the specificity of the method. The validated limit of quantification was 0.01 μg/mL.
For the IV study, a non-compartmental analysis was used to determined PK parameters.

- half-life ([1]; EM beagle dogs (n = 8)): 4.6 ± 2.6 h
- half-life ([1]; PM beagle dogs (n = 4)): 8 ± 0.6 h
- terminal half-life ([1]; oral 2 mg/kg, EM beagle dogs (n = 8)): 2.9 ± 0.9 h
- HL (plasma half-life) ([2]; Extensive metabolizers (n = 8)): 2.72 ± 0.858 h
- HL (plasma half-life) ([2]; Poor metabolizers (n = 4)): 5.63 ± 0.727 h
- AUC ([2]; Extensive metabolizers (n = 8)): 7200 ± 1810 ng·h/mL
- clearance ([2]; Extensive metabolizers (n = 8)): 5.17 mL/min/kg
- half-life ([2]; Extensive metabolizers (n = 8)): 2.7 ± 0.9 h
- Vd ([2]; Extensive metabolizers (n = 8)): 1.12 ± 0.203 L/kg
- AUC ([2]; Poor metabolizers (n = 4)): 19200 ± 3150 ng·h/mL
- clearance ([2]; Poor metabolizers (n = 4)): 1.83 mL/min/kg
- half-life ([2]; Poor metabolizers (n = 4)): 5.6 ± 1.7 h
- Vd ([2]; Poor metabolizers (n = 4)): 0.89 ± 0.133 L/kg
Compound: COc1ccc(-c2c(Cl)ncn2-c2ccc(S(N)(=O)=O)cc2)cc1F [cimicoxib]
